The nature of data set [1]: Statistical analysis of SEM images of nanoparticles in the product aqueous suspension. The following applies: for average nanoparticle size: Ibuprofen. It counts as physicochemical. The procedure: A system similar to that illustrated in FIG. 1 was utilized to form aqueous suspensions of Ibuprofen particles. Specifically, a solution (0.25 mg/mL) of Ibuprofen (available from Sigma-Aldrich Corporation) in liquid carbon dioxide (high-purity, SFC grade obtained from Air Products Corporation) was prepared in the syringe pump 10. The solution was pushed through the heating unit 14 to reach the desired supercritical temperature of 40° C. before reaching the expansion nozzle 16. The rapid expansion was carried out at a pre-expansion pressure of 200 bar through a 50 μm orifice into an aqueous solution. A specimen of the product suspension was prepared for SEM imaging by depositing a few drops of the dilute nanoparticle aqueous suspension onto a carbon tape, followed by drying under ambient condition and then coating with platinum before imaging. SEM images were obtained on a Hitachi S-4700 Field-Emission SEM system.

Data set [2] in a line: Stability of the product aqueous suspension against precipitation. It counts as physicochemical. The following applies: for time until precipitation appeared in the suspension: receiving solution neat water. The procedure: A system similar to that illustrated in FIG. 1 was utilized to form aqueous suspensions of Ibuprofen particles. Specifically, a solution (0.25 mg/mL) of Ibuprofen (available from Sigma-Aldrich Corporation) in liquid carbon dioxide (high-purity, SFC grade obtained from Air Products Corporation) was prepared in the syringe pump 10. The solution was pushed through the heating unit 14 to reach the desired supercritical temperature of 40° C. before reaching the expansion nozzle 16. The rapid expansion was carried out at a pre-expansion pressure of 200 bar through a 50 μm orifice into an aqueous solution. FIG. 2A is an SEM analysis of the precipitate obtained when the receiving solution in the expansion chamber 18 was neat water.

As to `CC(C)Cc1ccc(C(C)C(=O)O)cc1` (centres unmarked) [Ibuprofen], the “change in nanoparticle size on increase of drug loading and PVP concentration” value in data set [1] (Ibuprofen loading 0.25 to 0.83 mg/mL, PVP concentration 0.5 to 3.3 mg/mL) is listed as “no significant changes”. The “average size in diameter” value is given as 40 nm in data set [1] (Ibuprofen nanoparticles, receiving solution aqueous PVP (Mw≈40,000), pre-expansion 40° C., 200 bar) and 25 nm in data set [1] (Ibuprofen nanoparticles, receiving solution aqueous SDS, 3.3 mg/mL). The average nanoparticle size was 52 nm in data set [1] (PVP receiving solution, pre-expansion temperature 120° C.) and 30 nm in data set [1] (high-molecular weight PVP (Mw≈360,000)). The “change in average particle size on variation of drug/polymer weight ratio” value in data set [1] (PVP, drug/polymer weight ratio varied from 0.3 to 4 (Ibuprofen) or 0.3 to 2 (Naproxen)) is listed as “no significant changes”. Besides, the “stability of product suspension” value in data set [2] (receiving solution aqueous PVP (Mw≈40,000)) is on record as “no sign of instability after several days”; in data set [2] (receiving solution aqueous SDS, 3.3 mg/mL), “remained stable without precipitation”. Also, in data set [2], the “time until precipitation appeared in the suspension” value was no more than 15 min.
With `COc1ccc2cc([C@H](C)C(=O)O)ccc2c1` [Naproxen], the “average size in diameter” value in data set [1] (Naproxen nanoparticles, 2 wt % methanol co-solvent, receiving solution 0.5 mg/mL PVP (Mw≈40,000)) worked out at 64 nm. Moreover, the “time until precipitation appeared in the suspension” value in data set [2] is no more than 15 min.

(Values after patent US7754243B2, “Aqueous suspension of nanoscale drug particles from supercritical fluid processing” (Clemson University Research Foundation, priority 2004, dated 2010).)
